Measurements taken from patent publication US20230097992A1, “BIVALENT EGF FUSION TOXINS” (The Regents of the University of Colorado, a body corporate, priority 2020, published 2023).
Where “and” joins values, the source holds several entries; their conditions need not be identical. Identical values can stand only once.

Experiments:
[1] = tested on: HNSCC Cal27 cells injected intravenously (lung metastases); assay: Experimental lung metastasis NSG mouse model; assay type: in vivo, NSG mice; conditions: for Median survival time: Lung metastasis model, fusion toxin or DT390 50 μg/kg IP, erlotinib 20 mg/kg gavage, once daily for 10 days from day 4
Experimental: FIG. 8A-C presents data from in vivo efficacy analysis of the human EGF fusion toxins using an experimental lung metastasis NSG mouse model. FIG. 8A presents data from a first animal study for survival curve analysis. NSG mice were IV injected with one million human EGFR^+ HNSCC Cal27 cells on day 0. Mice were injected intraperitoneally (IP) with the EGF fusion toxin or DT390 at 50 μg/kg, once daily for 10 consecutive days starting on day 4 after the tumor cell injection. […] The schedule of the fusion toxin and tumor cell injection is pictured in the schematic below the survival curve. The vertical arrows indicate the days on which the tumor cells or the fusion toxins were injected. *P<0.05; **P<0.01; ***P<0.001; ****P<0.0001. The P-values for the survival curves were calculated using the Mantel-Cox log-rank test (GraphPad Prism9.0).
FIGS. 8B and C present data from a second animal study for a pathology analysis. […] The mice were euthanized on day 10 after tumor cell injection when the first mouse in the DT390 group reached the end point. FIG. 8B presents H&E pictures of lung metastases. Metastases are indicated in the upper panels by black arrowheads. Scale bar: 500 μm. The lower panels are higher magnification pictures of the area in black rectangles in the upper panels. […] Error bars indicate standard deviation (SD).
(§1) HNSCC tumor cells were injected via the following routes: 1) Flank-xenograft solid tumor model: eight million human HNSCC Cal27 tumor cells were subcutaneously injected into the right flank at day 0. The tumor-bearing mice were randomly divided into the four experimental groups when the tumors were palpable at day 3. The tumor volume was measured using digital vernier calipers every 3 days and calculated according to the formula: volume (mm^3)=(length×width×width)/2. 2) Tongue-orthotopic solid tumor model: eight million human HNSCC Cal27 tumor cells in 50 μl DMEM were injected into the tongue at day 0 following isoflurane anesthesia and the tumor-bearing mice were randomly divided into the planned four experimental groups at day 3. 3) Experimental metastasis model: one million human HNSCC Cal27 tumor cells in 200 μl DMEM were intravenously injected at day 0 via tail vein and the tumor-bearing mice were randomly divided into the four experimental groups at day 3.
(§2) Mono-EGF-IT (mEGF-IT), bEGF-IT, or DT390 was intraperitoneally injected (IP) starting at day 4 at 50 μg/kg, once daily for 10 consecutive days. […] The injected animals were observed daily for signs and symptoms of illness and scored at least twice weekly based on the parameters as previously reported (Peraino et al. (2013), J. Immunol. Methods 398-399, 33-43, which is hereby incorporated by reference in its entirety; Wang et al., 2015). The animals were humanely euthanized when the score exceeded the limit or the animal lost more than 15% of its pre-injection body weight. In addition, to assess whether the fusion toxins are toxic to the animals, NSG mice injected with the fusion toxins only were also included as control.
The third in vivo efficacy model was an experimental metastasis model. One million of HNSCC Cal27 tumor cells were intravenously injected via the tail vein of NSG mice at day 0. The EGF fusion toxins were injected intraperitoneally (IP) starting on day 4 at 50 μg/kg daily for 10 consecutive days. […] To further assess the effects of the fusion toxins on metastasis, the experimental metastasis study was repeated with a second cohort of NSG mice, and all mice were euthanized 10 days after tumor cell inoculation, when the first mouse in the DT390 group reached the end point. The data are depicted in FIGS. 8B and C.

[2] = tested on: HNSCC Cal27 subcutaneous xenografts; assay: Flank-xenograft solid tumor-bearing NSG mouse model; assay type: in vivo, NSG mice; conditions: Subcutaneous xenograft model; fusion toxin or DT390 50 μg/kg IP, erlotinib 20 mg/kg gavage, once daily for 10 days from day 4
Excerpt: FIGS. 6A-6D presents the data from in vivo efficacy analysis of the human EGF fusion toxins against subcutaneous xenografts in NSG mice from two animal studies. FIG. 6A depicts the survival curve for NSG mice injected with Cal27 cells. […] FIGS. 6B-D depict tumor volume and weight data from the second study performed with a second cohort of NSG mice. […] Mice were euthanized on day 14 after tumor cell injection, when the first mouse in the DT390 group reached the end point. FIG. 6B: Tumor volumes were measured periodically, and the growth kinetics of the four groups were plotted. FIG. 6B depicts the tumor growth kinetics for a period of 14 days. FIG. 6C presents a bar graph representing the tumor weights at day 14. FIG. 6D depicts images of harvested tumors on day 14. Scale bar: 1 cm. FIGS. 6A-6C: *P<0.05; **P<0.01; ***P<0.001; ****P<0.0001; ns: not significant. The P-values for the survival curves in FIG. 6A were calculated using the Mantel-Cox log-rank test and that for the comparisons in FIGS. 6B and C were calculated using the two-tailed Student t-test (GraphPad Prism 9.0.0).
as §1, §2
In vivo efficacy of the mEGF-IT and bEGF-IT against HNSCC was assessed using three immunodeficient tumor-bearing NSG mouse models. The first in vivo efficacy model was a flank-xenograft solid tumor-bearing NSG mouse model. Eight million Cal27 tumor cells were injected subcutaneously (SQ) into the right flank at day 0. The EGF fusion toxins were injected intraperitoneally (IP) starting on day 4 at 50 μg/kg daily for 10 consecutive days. […] The reduction of the tumor volumes, weights and sizes (FIGS. 6B-6D) were all consistent with the median survival prolongation.

[3] = tested on: HNSCC Cal27 tongue-orthotopic tumors; assay: Tongue-orthotopic tumor-bearing NSG mouse model; assay type: in vivo, NSG mice; conditions: Tongue orthotopic model; fusion toxin or DT390 50 μg/kg IP, erlotinib 20 mg/kg gavage, once daily for 10 days from day 4
Experimental: FIGS. 7A-7C presents the data from two animal studies of in vivo efficacy analysis of the human EGF fusion toxins against tongue squamous cell carcinomas (SCCs) in NSG mice. FIG. 7A presents the data from in vivo efficacy analysis of the human EGF fusion toxins using human EGFR-positive HNSCC Cal27 tongue-orthotopic tumor-bearing NSG mouse model. Eight million human EGFR-positive HNSCC Cal27 cells were injected into the tongue on day 0. Mice were injected intraperitoneally (IP) with the EGF fusion toxin or DT390 at 50 μg/kg, starting on day 4, once daily for 10 consecutive days. […] The schedule of the fusion toxin and tumor cell injection is pictured in the schematic below the survival curve. The vertical arrows indicate the days on which the tumor cells or the fusion toxins were injected. *P<0.05; **P<0.01; ***P<0.001; ****P<0.0001; ns: not significant.
FIG. 7B presents the data from a further in vivo efficacy analysis of the human EGF fusion toxins. […] The mice were euthanized on day 8 after tumor cell injection when the first mouse in the DT390 group reached the end point. The photograph depicts tongue squamous cell carcinomas (SCCs) (circled by the black dotted lines). Scale bar: 1 cm. FIG. 7C presents the FIG. 7B tumor volume comparison of the treatment groups. *P<0.05; **P<0.01
as §1, §2
To assess the in vivo efficacy of the human EGF fusion toxins to the xenograft tumors in the head and neck area, a tongue-orthotopic tumor-bearing NSG mouse model was used as a second efficacy model. Eight million HNSCC Cal27 cells were injected into the tongue at day 0. The EGF fusion toxins were injected intraperitoneally (IP) starting on day 4 at 50 μg/kg daily for 10 consecutive days. Since the resulting tongue-orthotopic tumors severely affected the animal's eating and drinking, animals were euthanized earlier. Therefore, the median survival prolongation was not as impressive as that observed in the flank-xenograft solid tumor-bearing NSG mouse model. […] To further characterize the effect of the EGF fusion toxins on tumor volume, the orthotopic tongue SCC model study was repeated, and the mice were euthanized 8 days after tumor cell inoculation.

NSG mice = assay: In vivo off-target toxicity in NSG mice
Excerpt: FIGS. 12A-C presents representative images of necropsy results for NSG mice treated with mono-EGF-IT or bi-EGF-IT without tumor cell injection. Mice were euthanized on day 13 after the first injection of the fusion toxins. The images show representative gross changes observed in the ear (FIG. 12A), liver (FIG. 12C) and gastrointestinal tract of a representative NSG mouse treated with mono-EGF-IT compared to a representative NSG mouse treated with bi-EGF-IT.
as §2
The main side effects of targeting EGFR are caused by off-target effects, because EGFR is expressed in many healthy tissues, include skin, liver, and gastrointestinal tract (Widakowich et al., (2007), Oncologist, 12, 1443-1455). […] To further assess these toxic effects, another in vivo toxicity study in non-tumor-bearing mice was performed. NSG mice were treated with mono-EGF-IT or bi-EGF-IT, without tumor cell injection.

[4] = tested on: 14 EGFR+ HNSCC cells lines; assay: Flow cytometry binding, all 14 EGFR+ HNSCC cell lines together; design: species or system human; conditions: mean over the 14 EGFR+ HNSCC cell lines
[5] = non-tumor-bearing NSG mice, 13 days after the first injection

Substance | Median survival time [1] | Median survival time [2] | Median survival time [3] | adverse effects observed in treated mice (NSG mice; mice of the efficacy studies) | general condition and skin (NSG mice; non-tumor-bearing NSG mice) | necropsy, gastrointestinal tract (NSG mice; [5]) | necropsy, liver (NSG mice; [5]) | Kd [4] | number of metastases in the lungs ([1]; second cohort, euthanized 10 days after tumor cell inoculation)
DT390 | 8.5 days | 14 days and 13 days | 10 days | – | – | – | – | – | –
Mono-EGF IT: DT390 joined by G4S to one human EGF domain, C-terminal 6×His tag; SEQ ID NO: 15 | 32 days | 14 days | 11 days | generally unhealthy and lethargic and developed skin rashes | generally unhealthy and lethargic with skin rashes | mildly pale with scant ingesta in the stomach or cecum | diffuse pale livers with moderate reticular patterns | 12.2 nM | reduced compared with the DT390-negative control group
